Assay results taken from patent US5498775A, “Polyanionic benzylglycosides as inhibitors of smooth muscle cell proliferation” (American Home Products Corporation, priority 1994, dated 1996).
Counter-ions that a name gives are not always drawn.

Columns and labels:
[1] = tested on: normal human plasma; experiment: Anticoagulant activity, partial thromboplastin time (APTT) assay; format: biochemical; settings: for Anticoagulation Activity (APTT) Relative to Heparin: ratio >1 indicates weaker activity relative to heparin on a μg/mL comparison
Procedure: A BBL Fibrometer automatic precesion coagulation timer utilizing a 0.3 mL probe was employed. An Ellagic acid activated partial thromboplastin was used for these experiments. This reagent was added to human citrated plasma equilibrated at 37° C. in a plastic well in the clot timer. Calcium at 37° C. was added, the clot timer was started and the time for fibrin clot formation (in seconds) was recorded. […] Clotting tests at all concentrations were run in triplicate. Analysis of variance for a randomized block design was used to determine the significance of differences observed in the clotting times.

[2] = tested on: Porcine Smooth Muscle Cell; experiment: Porcine smooth muscle cell antiproliferation, 3H thymidine incorporation; format: cell-based; settings: for IC50: porcine aortic smooth muscle cells, 3H thymidine incorporation
Procedure: Cells were assayed in early passage (generally passage 3-7) at sub-confluent conditions. […] At sub-confluence, the cells were placed in a defined serum free medium (AIM-V; Gibco) for 24-48 h prior to initiating the experimental protocol.
At the completion of the experiment, plates were placed on ice, washed three times with ice cold PBS and incubated in ice cold 10% trichloroacetic acid (TCA) for 30 min to remove acid soluble proteins. Solution was transferred to scintillation vials containing 0.4N HCl (500 μL/vial to neutralize NaOH) and each well was rinsed two times with water (500 μL) for a total volume of 2 mL/vial.
Data was obtained, in triplicate, for both control and experimental samples. […] Experimental data was obtained from cells maximally stimulated with growth factor or serum and treated with compound. Data was expressed as a percent of control from which IC50 s could be determined.

[3] = tested on: human endothelial cell; experiment: Effect on endothelial cell growth vs. smooth muscle cell proliferation; format: cell-based; settings: driven by 2% FBS, at doses inhibitory towards human SMC proliferation driven by 10% FBS; FIG. 1
Excerpt: The ability of the compounds of the present invention to inhibit smooth muscle cell proliferation and modulate endothelial cell growth was established using isolated aortic cells obtained from commercial sources or, for certain species, prepared in-house. Cell lines used in this study include human and porcine aortic smooth muscle cells and human aortic endothelial cells. Human aortic cell lines were obtained from Clonetics Corporation (San Diego).
B. Effects of compounds on cell proliferation using ^3 H Thymidine incorporation
Cells were assayed in early passage (generally passage 3-7) at sub-confluent conditions. Cultures were grown in 16 mm (24 well) multi-well culture dishes in media 199 supplemented with 10% fetal bovine serum and 2% antibiotic/antimycotic. At sub-confluence, the cells were placed in a defined serum free medium (AIM-V; Gibco) for 24-48 h prior to initiating the experimental protocol.
Growth factor and serum stimulations were optimized for each cell type.
Compounds were added to each well at 50 fold dilution (20 μL/well) and the plates were incubated for 24-36 h at 37° C. in 5% CO2. […] Compounds were routinely assayed at 1, 10, and 100 μM. […]
Data was obtained, in triplicate, for both control and experimental samples. […] Data was expressed as a percent of control from which IC50 s could be determined. […]

| Compound | Anticoagulation Activity (APTT) Relative to Heparin [1] | other results |
| --- | --- | --- |
| O=C(CCC(=O)Nc1cc(CO[C@@H]2O[C@H](COS(=O)(=O)O)[C@@H](O[C@@H]3O[C@H](COS(=O)(=O)O)[C@@H](OS(=O)(=O)O)[C@H](OS(=O)(=O)O)[C@H]3OS(=O)(=O)O)[C@H](OS(=O)(=O)O)[C@H]2OS(=O)(=O)O)cc(CO[C@@H]2O[C@H](COS(=O)(=O)O)[C@@H](O[C@@H]3O[C@H](COS(=O)(=O)O)[C@@H](OS(=O)(=O)O)[C@H](OS(=O)(=O)O)[C@H]3OS(=O)(=O)O)[C@H](OS(=O)(=O)O)[C@H]2OS(=O)(=O)O)c1)Nc1cc(CO[C@@H]2O[C@H](COS(=O)(=O)O)[C@@H](O[C@@H]3O[C@H](COS(=O)(=O)O)[C@@H](OS(=O)(=O)O)[C@H](OS(=O)(=O)O)[C@H]3OS(=O)(=O)O)[C@H](OS(=O)(=O)O)[C@H]2OS(=O)(=O)O)cc(CO[C@@H]2O[C@H](COS(=O)(=O)O)[C@@H](O[C@@H]3O[C@H](COS(=O)(=O)O)[C@@H](OS(=O)(=O)O)[C@H](OS(=O)(=O)O)[C@H]3OS(=O)(=O)O)[C@H](OS(=O)(=O)O)[C@H]2OS(=O)(=O)O)c1 [EXAMPLE 22, N,N'-Bis[3,5-bis(hepta-O-sulfato-β-D-cellobiosyloxymethyl)phenyl]succinamide Octacosasodium Salt] | 2.0 | – |
| O=C(Nc1cc(CO[C@@H]2O[C@H](COS(=O)(=O)[O-])[C@@H](O[C@@H]3O[C@H](COS(=O)(=O)[O-])[C@H](OS(=O)(=O)[O-])[C@H](OS(=O)(=O)[O-])[C@H]3OS(=O)(=O)[O-])[C@H](OS(=O)(=O)[O-])[C@H]2OS(=O)(=O)[O-])cc(CO[C@@H]2O[C@H](COS(=O)(=O)[O-])[C@@H](O[C@@H]3O[C@H](COS(=O)(=O)[O-])[C@H](OS(=O)(=O)[O-])[C@H](OS(=O)(=O)[O-])[C@H]3OS(=O)(=O)[O-])[C@H](OS(=O)(=O)[O-])[C@H]2OS(=O)(=O)[O-])c1)c1ccc(-c2ccc(C(=O)Nc3cc(CO[C@@H]4O[C@H](COS(=O)(=O)[O-])[C@@H](O[C@@H]5O[C@H](COS(=O)(=O)[O-])[C@H](OS(=O)(=O)[O-])[C@H](OS(=O)(=O)[O-])[C@H]5OS(=O)(=O)[O-])[C@H](OS(=O)(=O)[O-])[C@H]4OS(=O)(=O)[O-])cc(CO[C@@H]4O[C@H](COS(=O)(=O)[O-])[C@@H](O[C@@H]5O[C@H](COS(=O)(=O)[O-])[C@H](OS(=O)(=O)[O-])[C@H](OS(=O)(=O)[O-])[C@H]5OS(=O)(=O)[O-])[C@H](OS(=O)(=O)[O-])[C@H]4OS(=O)(=O)[O-])c3)cc2)cc1.[Na+].[Na+].[Na+].[Na+].[Na+].[Na+].[Na+].[Na+].[Na+].[Na+].[Na+].[Na+].[Na+].[Na+].[Na+].[Na+].[Na+].[Na+].[Na+].[Na+].[Na+].[Na+].[Na+].[Na+].[Na+].[Na+].[Na+].[Na+] [EXAMPLE 16, Biphenyl-4,4'-dicarboxylic Acid Bis{[3,5-bis(hepta-O-sulfato-β-D-lactosyloxymethyl)phenyl]amide}Octacosasodium Salt] | 2.2 | IC50 [2]: 3.6 µM |
| O=C(Nc1cc(CO[C@@H]2O[C@H](COS(=O)(=O)O)[C@@H](O[C@@H]3O[C@H](COS(=O)(=O)O)[C@@H](OS(=O)(=O)O)[C@H](OS(=O)(=O)O)[C@H]3OS(=O)(=O)O)[C@H](OS(=O)(=O)O)[C@H]2OS(=O)(=O)O)cc(CO[C@@H]2O[C@H](COS(=O)(=O)O)[C@@H](O[C@@H]3O[C@H](COS(=O)(=O)O)[C@@H](OS(=O)(=O)O)[C@H](OS(=O)(=O)O)[C@H]3OS(=O)(=O)O)[C@H](OS(=O)(=O)O)[C@H]2OS(=O)(=O)O)c1)c1ccc(C(=O)Nc2cc(CO[C@@H]3O[C@H](COS(=O)(=O)O)[C@@H](O[C@@H]4O[C@H](COS(=O)(=O)O)[C@@H](OS(=O)(=O)O)[C@H](OS(=O)(=O)O)[C@H]4OS(=O)(=O)O)[C@H](OS(=O)(=O)O)[C@H]3OS(=O)(=O)O)cc(CO[C@@H]3O[C@H](COS(=O)(=O)O)[C@@H](O[C@@H]4O[C@H](COS(=O)(=O)O)[C@@H](OS(=O)(=O)O)[C@H](OS(=O)(=O)O)[C@H]4OS(=O)(=O)O)[C@H](OS(=O)(=O)O)[C@H]3OS(=O)(=O)O)c2)cc1 [EXAMPLE 23, N,N '-Bis[3,5-bis(hepta-O-sulfato-β-D-cellobiosyloxymethyl)phenyl]terephthalamide Octacosasodium Salt] | 2.0 | – |
| O=C(Nc1cc(CO[C@@H]2O[C@H](COS(=O)(=O)O)[C@@H](O[C@@H]3O[C@H](COS(=O)(=O)O)[C@@H](OS(=O)(=O)O)[C@H](OS(=O)(=O)O)[C@H]3OS(=O)(=O)O)[C@H](OS(=O)(=O)O)[C@H]2OS(=O)(=O)O)cc(CO[C@@H]2O[C@H](COS(=O)(=O)O)[C@@H](O[C@@H]3O[C@H](COS(=O)(=O)O)[C@@H](OS(=O)(=O)O)[C@H](OS(=O)(=O)O)[C@H]3OS(=O)(=O)O)[C@H](OS(=O)(=O)O)[C@H]2OS(=O)(=O)O)c1)c1ccc(-c2ccc(C(=O)Nc3cc(CO[C@@H]4O[C@H](COS(=O)(=O)O)[C@@H](O[C@@H]5O[C@H](COS(=O)(=O)O)[C@@H](OS(=O)(=O)O)[C@H](OS(=O)(=O)O)[C@H]5OS(=O)(=O)O)[C@H](OS(=O)(=O)O)[C@H]4OS(=O)(=O)O)cc(CO[C@@H]4O[C@H](COS(=O)(=O)O)[C@@H](O[C@@H]5O[C@H](COS(=O)(=O)O)[C@@H](OS(=O)(=O)O)[C@H](OS(=O)(=O)O)[C@H]5OS(=O)(=O)O)[C@H](OS(=O)(=O)O)[C@H]4OS(=O)(=O)O)c3)cc2)cc1 [EXAMPLE 15, Biphenyl-4,4'-dicarboxylic Acid Bis{[3,5-bis(hepta-O-sulfato-β-D-cellobiosyloxymethyl)phenyl]amide}Octacosasodium Salt] | 2.0-2.3 | – |
| Cc1ccc(CO[C@@H]2O[C@H](COS(=O)(=O)O)[C@@H](OS(=O)(=O)O)[C@H](OS(=O)(=O)O)[C@H]2OS(=O)(=O)O)cc1NC(=O)CCC(=O)Nc1cc(CO[C@@H]2O[C@H](COS(=O)(=O)O)[C@@H](OS(=O)(=O)O)[C@H](OS(=O)(=O)O)[C@H]2OS(=O)(=O)O)ccc1C [EXAMPLE 25, N,N'-Bis[2-methyl-5-(2,3,4,6-tetra-O-suifato-β-D-glucopyranosyloxymethyl)phenyl]succinamide Octasodium Salt] | – | inhibition at 50 µg/mL ([2]; Sus scrofa, read-out: Porcine Smooth Muscle Cell Antiproliferation, % Inhibition at 50 μg/mL): 8% |
| O=C(Nc1cc(CO[C@@H]2O[C@H](COS(=O)(=O)O)[C@@H](OS(=O)(=O)O)[C@H](OS(=O)(=O)O)[C@H]2OS(=O)(=O)O)cc(CO[C@@H]2O[C@H](COS(=O)(=O)O)[C@@H](OS(=O)(=O)O)[C@H](OS(=O)(=O)O)[C@H]2OS(=O)(=O)O)c1)c1ccc(-c2ccc(C(=O)Nc3cc(CO[C@@H]4O[C@H](COS(=O)(=O)O)[C@@H](OS(=O)(=O)O)[C@H](OS(=O)(=O)O)[C@H]4OS(=O)(=O)O)cc(CO[C@@H]4O[C@H](COS(=O)(=O)O)[C@@H](OS(=O)(=O)O)[C@H](OS(=O)(=O)O)[C@H]4OS(=O)(=O)O)c3)cc2)cc1 [EXAMPLE 17, Biphenyl-4,4'-dicarboxylic Acid Bis{[3,5-bis(tetra-O-sulfato-β-D-glucosyloxymethyl)phenyl]amide}Hexadecasodium Salt] | – | Anticoagulation Activity (APTT), result in words ([1]; at 50 μg/mL): insignificant activity |
| Decanedioic Acid Bis{[3,5-bis(hepta-O-sulfato-β-D-cellobiosyloxymethyl}phenyl]amide} Octacosasodium Salt [EXAMPLE 14] | 6.7 | IC50 [2]: 3 µM |
| O=C(Nc1cc(CO[C@@H]2O[C@H](COS(=O)(=O)O)[C@@H](O[C@H]3O[C@H](COS(=O)(=O)O)[C@@H](OS(=O)(=O)O)[C@H](OS(=O)(=O)O)[C@H]3OS(=O)(=O)O)[C@H](OS(=O)(=O)O)[C@H]2OS(=O)(=O)O)cc(CO[C@@H]2O[C@H](COS(=O)(=O)O)[C@@H](O[C@H]3O[C@H](COS(=O)(=O)O)[C@@H](OS(=O)(=O)O)[C@H](OS(=O)(=O)O)[C@H]3OS(=O)(=O)O)[C@H](OS(=O)(=O)O)[C@H]2OS(=O)(=O)O)c1)c1ccc(-c2ccc(C(=O)Nc3cc(CO[C@@H]4O[C@H](COS(=O)(=O)O)[C@@H](O[C@H]5O[C@H](COS(=O)(=O)O)[C@@H](OS(=O)(=O)O)[C@H](OS(=O)(=O)O)[C@H]5OS(=O)(=O)O)[C@H](OS(=O)(=O)O)[C@H]4OS(=O)(=O)O)cc(CO[C@@H]4O[C@H](COS(=O)(=O)O)[C@@H](O[C@H]5O[C@H](COS(=O)(=O)O)[C@@H](OS(=O)(=O)O)[C@H](OS(=O)(=O)O)[C@H]5OS(=O)(=O)O)[C@H](OS(=O)(=O)O)[C@H]4OS(=O)(=O)O)c3)cc2)cc1 [EXAMPLE 18] | 2.1 | effect on human endothelial cell growth [3]: enhance human endothelial cell growth |
